Assays:
human PDE2 = target: T1, human PDE2 (Homo sapiens, UniProt O00408); test: PDE2 enzyme assay (PDE selectivity); format: biochemical; conditions: read-out: PDE2 (% inhibit at 10 μM)
T1 construct: MDS Pharma Services
Method: (§1) The phosphodiesterase selectivity of 2,5-Diamino-4-(4-chloro-phenyl)-thieno[2,3-d]pyrimidine-6-carboxylic acid amide was assessed by testing against bovine PDE1, human PDE2, PDE3 and PDE5 from human platelets and PDE6 from bovine retinal rod outer segments (MDS Pharma Services).

[1] = tested on: PDE4 enzyme purified from U937 human monocytic cells; test: PDE4 (U937 cell-derived) enzyme assay; format: biochemical
Method: PDE4 enzyme is purified from U937 human monocytic cells by gel filtration chromatography as previously described (Muller et al. Bioorg. & Med Chem Lett 8:2669-2674 (1998)). Phosphodiesterase reactions are carried out in 50 mM Tris HCl pH 7.5, 5 mM MgCl2, 1 μM cAMP, 10 nM [^3H]-cAMP for 30 minutes at 30° C., terminated by boiling, treated with 1 mg/ml snake venom and separated using AG-1XS ion exchange resin (BioRad) as described (Id). Reactions consumed less than 15% of available substrate.

[2] = target: T2, PDE5 from human platelets (Homo sapiens, UniProt O76074); test: PDE5 enzyme assay (PDE selectivity); format: biochemical; conditions: read-out: PDE5 (% inhibit at 10 μM)
T2 construct: PDE3 and PDE5 from human platelets; tissue MDS Pharma Services; host or cells: human platelets
Method: as §1

[3] = target: T3, PDE3 from human platelets (Homo sapiens, UniProt Q14432); test: PDE3 enzyme assay (PDE selectivity); format: biochemical; conditions: read-out: PDE3 (% inhibit at 10 μM)
T3 construct: PDE3 and PDE5 from human platelets; tissue MDS Pharma Services; host or cells: human platelets
T3 sequence (Q14432 whole entry): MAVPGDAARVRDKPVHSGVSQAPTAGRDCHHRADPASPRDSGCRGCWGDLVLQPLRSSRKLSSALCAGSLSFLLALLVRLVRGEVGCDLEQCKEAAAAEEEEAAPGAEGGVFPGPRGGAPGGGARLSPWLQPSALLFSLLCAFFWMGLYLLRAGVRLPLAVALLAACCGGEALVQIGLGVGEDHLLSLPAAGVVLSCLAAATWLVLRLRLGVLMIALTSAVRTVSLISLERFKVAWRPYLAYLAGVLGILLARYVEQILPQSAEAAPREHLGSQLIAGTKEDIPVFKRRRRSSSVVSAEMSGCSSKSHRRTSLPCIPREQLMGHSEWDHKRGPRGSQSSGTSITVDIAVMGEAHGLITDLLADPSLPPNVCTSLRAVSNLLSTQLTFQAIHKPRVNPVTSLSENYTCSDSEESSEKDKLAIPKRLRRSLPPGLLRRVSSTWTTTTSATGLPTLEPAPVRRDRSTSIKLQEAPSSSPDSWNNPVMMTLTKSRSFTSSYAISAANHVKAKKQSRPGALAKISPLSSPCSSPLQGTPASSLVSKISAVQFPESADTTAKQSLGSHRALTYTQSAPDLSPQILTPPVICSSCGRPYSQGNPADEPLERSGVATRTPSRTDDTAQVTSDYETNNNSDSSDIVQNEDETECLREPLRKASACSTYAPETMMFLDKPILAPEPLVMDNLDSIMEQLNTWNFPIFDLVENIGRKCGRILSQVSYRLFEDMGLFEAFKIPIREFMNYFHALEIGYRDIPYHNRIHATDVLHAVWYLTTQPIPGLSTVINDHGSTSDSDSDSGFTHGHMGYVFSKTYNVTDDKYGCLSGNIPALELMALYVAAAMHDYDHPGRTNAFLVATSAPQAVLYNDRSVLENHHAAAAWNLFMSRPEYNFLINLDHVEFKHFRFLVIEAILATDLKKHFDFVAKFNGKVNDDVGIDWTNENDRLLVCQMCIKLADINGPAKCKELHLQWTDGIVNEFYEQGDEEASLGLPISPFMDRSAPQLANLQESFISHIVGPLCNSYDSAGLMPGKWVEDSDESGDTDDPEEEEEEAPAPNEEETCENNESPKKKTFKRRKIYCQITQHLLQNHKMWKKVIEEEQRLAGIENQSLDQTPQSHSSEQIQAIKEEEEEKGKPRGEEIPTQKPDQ
Method: as §1

bovine PDE1 = test: PDE1 enzyme assay (PDE selectivity); format: biochemical
Method: as §1

[4] = target: T4, PDE6 from bovine retinal rod outer segments (Bos taurus, UniProt P11541+P23439); test: PDE6 enzyme assay (PDE selectivity); format: biochemical; conditions: read-out: PDE6 (% inhibit at 10 μM)
T4 construct: PDE6 from bovine retinal rod outer segments; tissue MDS Pharma Services; host or cells: bovine retinal rod outer segments
T4 sequence (P11541 2-856 limits assumed): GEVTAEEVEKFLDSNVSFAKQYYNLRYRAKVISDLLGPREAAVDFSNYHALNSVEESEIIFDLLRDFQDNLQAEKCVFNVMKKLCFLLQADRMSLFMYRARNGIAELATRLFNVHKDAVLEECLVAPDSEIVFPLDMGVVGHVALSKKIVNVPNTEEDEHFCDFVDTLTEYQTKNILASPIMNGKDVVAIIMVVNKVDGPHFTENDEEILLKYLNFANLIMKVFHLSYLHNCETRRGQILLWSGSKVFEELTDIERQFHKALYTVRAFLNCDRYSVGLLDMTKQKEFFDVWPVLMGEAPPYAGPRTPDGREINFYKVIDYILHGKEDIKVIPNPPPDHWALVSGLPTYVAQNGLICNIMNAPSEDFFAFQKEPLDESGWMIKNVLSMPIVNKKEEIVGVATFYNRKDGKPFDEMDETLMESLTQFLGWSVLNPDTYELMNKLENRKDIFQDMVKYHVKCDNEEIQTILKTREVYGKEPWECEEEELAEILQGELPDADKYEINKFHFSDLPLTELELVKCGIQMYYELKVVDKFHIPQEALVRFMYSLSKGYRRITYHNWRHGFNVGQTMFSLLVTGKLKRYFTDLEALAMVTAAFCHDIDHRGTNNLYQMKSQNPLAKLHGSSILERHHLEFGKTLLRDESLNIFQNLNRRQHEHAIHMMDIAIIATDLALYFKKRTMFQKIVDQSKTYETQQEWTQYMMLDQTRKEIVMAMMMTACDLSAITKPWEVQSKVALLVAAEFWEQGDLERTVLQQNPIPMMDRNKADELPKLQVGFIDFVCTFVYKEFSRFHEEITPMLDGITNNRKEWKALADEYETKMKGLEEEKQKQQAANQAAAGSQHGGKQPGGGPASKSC
T4 sequence (P23439 2-850 limits assumed): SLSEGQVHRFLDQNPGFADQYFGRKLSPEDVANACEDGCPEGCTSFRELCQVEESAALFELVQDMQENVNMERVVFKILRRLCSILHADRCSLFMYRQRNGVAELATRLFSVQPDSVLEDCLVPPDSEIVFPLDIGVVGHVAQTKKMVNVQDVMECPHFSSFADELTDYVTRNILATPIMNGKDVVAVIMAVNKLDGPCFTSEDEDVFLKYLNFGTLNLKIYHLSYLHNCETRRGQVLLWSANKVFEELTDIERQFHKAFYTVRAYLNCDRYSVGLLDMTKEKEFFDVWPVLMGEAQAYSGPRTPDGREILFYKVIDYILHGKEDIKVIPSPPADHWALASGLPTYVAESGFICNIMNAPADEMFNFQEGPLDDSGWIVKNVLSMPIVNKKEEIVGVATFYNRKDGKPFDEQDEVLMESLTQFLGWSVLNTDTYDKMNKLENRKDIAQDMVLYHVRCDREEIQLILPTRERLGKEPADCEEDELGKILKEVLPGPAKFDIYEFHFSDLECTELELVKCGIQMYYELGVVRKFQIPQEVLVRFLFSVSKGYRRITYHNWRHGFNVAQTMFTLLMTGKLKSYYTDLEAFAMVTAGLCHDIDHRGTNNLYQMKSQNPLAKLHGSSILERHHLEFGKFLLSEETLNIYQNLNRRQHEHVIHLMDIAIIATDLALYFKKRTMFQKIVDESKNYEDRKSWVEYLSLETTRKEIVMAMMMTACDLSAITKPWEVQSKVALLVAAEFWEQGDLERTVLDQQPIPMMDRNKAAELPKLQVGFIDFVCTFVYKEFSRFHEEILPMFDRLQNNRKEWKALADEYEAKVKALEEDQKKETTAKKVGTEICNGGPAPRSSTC
Method: as §1

A375 cells = test: Alamar Blue Viability Assay; format: cell-based; conditions: Homo sapiens, A-375, 72 h, 3 days
In short: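 A375 cells (1,000/well) plated overnight, then treated in triplicate at 0.6–60 μM final, 0.2% DMSO, for 3 days at 37° C. Viability by Alamar Blue fluorescence (ex 530/em 590 nm, 4 h); percent of DMSO control used to plot IC50 curves.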

V600E mutant B-RAF = target: T5, V600E mutant B-RAF (Homo sapiens, UniProt P15056, V600E); test: V600E Mutant B-RAF 33P Assay; format: biochemical
T5 construct: purchased Upstate
T5 sequence (P15056 whole entry V600E): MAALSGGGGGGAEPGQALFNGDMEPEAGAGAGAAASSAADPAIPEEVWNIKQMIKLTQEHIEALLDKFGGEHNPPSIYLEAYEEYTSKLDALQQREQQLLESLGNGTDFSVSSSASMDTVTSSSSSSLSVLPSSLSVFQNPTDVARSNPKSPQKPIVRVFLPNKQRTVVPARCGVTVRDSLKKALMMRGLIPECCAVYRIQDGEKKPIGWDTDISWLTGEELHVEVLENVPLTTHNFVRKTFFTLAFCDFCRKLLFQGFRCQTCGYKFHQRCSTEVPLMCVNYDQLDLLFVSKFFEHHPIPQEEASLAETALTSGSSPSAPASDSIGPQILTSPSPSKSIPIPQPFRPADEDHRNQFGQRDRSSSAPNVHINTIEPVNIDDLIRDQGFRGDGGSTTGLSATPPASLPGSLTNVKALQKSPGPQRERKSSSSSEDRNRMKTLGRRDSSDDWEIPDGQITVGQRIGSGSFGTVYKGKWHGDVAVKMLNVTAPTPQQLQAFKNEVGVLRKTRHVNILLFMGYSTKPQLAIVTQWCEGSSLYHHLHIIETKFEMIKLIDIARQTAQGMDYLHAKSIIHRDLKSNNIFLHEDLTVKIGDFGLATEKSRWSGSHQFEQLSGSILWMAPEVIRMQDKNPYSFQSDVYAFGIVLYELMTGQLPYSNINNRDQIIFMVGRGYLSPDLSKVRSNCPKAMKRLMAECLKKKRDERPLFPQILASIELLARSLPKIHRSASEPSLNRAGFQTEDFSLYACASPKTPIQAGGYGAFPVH

pMEK1/2 in A375 cells = test: A375 pMEK1/2 Meso Scale Assay; format: cell-based; conditions: Homo sapiens, A-375, 2 h; A375 pMEK1/2, about two hours incubation
Method: On the afternoon of Day 1, cells are plated in a 96-well flat bottom cell culture plate at about 50,000 cells/well in a volume of 100 μl. On the morning of Day 2, serial dilutions of test compound(s) are added to the plate. The plate is incubated for about two hours at 37° C., […]. The plate is blocked about five minutes before the compound incubation step is completed by adding 150 μl/well of MSD (Meso Scale Discovery) blocking solution-A (prepared with 20 ml 1× Tris wash buffer (25 ml of 10× Tris buffer+225 ml deionized water) and 600 mg MSD blocker A) and incubating with vigorous shaking at room temperature for one hour. The plate is washed 4× with 1× Tris wash buffer.
Cells are harvested and lysates prepared by removing medium, washing 1× with ice-cold PBS (calcium and magnesium free), adding 50 μl/well Complete Tris buffer and incubating with shaking at 4° C. for one hour. Lysate samples (25 μl) are added to an MSD Multi-Spot plate and incubated with vigorous shaking at room temperature for two hours. The plate is washed 1× with Tris wash buffer.
25 μl/well of […] detection antibody (Anti-pMEK1/2 antibody; SULFO-TAG labeled, light sensitive) in 3 ml of cold antibody dilution buffer (1 ml blocking solution-A, 1.82 ml 1× Tris wash buffer, 150 μl 2% MSD blocker D-M and 30 μl 10% MSD blocker D-R) is added and the plate is incubated with vigorous shaking at room temperature in the dark for one hour. The plate is washed 1× with Tris wash buffer.
150 μl/well of 1× MSD Read buffer T (with surfactant) is added to the plate and the plate is read using a MSD Sector instrument.

T1 sequence (O00408 whole entry): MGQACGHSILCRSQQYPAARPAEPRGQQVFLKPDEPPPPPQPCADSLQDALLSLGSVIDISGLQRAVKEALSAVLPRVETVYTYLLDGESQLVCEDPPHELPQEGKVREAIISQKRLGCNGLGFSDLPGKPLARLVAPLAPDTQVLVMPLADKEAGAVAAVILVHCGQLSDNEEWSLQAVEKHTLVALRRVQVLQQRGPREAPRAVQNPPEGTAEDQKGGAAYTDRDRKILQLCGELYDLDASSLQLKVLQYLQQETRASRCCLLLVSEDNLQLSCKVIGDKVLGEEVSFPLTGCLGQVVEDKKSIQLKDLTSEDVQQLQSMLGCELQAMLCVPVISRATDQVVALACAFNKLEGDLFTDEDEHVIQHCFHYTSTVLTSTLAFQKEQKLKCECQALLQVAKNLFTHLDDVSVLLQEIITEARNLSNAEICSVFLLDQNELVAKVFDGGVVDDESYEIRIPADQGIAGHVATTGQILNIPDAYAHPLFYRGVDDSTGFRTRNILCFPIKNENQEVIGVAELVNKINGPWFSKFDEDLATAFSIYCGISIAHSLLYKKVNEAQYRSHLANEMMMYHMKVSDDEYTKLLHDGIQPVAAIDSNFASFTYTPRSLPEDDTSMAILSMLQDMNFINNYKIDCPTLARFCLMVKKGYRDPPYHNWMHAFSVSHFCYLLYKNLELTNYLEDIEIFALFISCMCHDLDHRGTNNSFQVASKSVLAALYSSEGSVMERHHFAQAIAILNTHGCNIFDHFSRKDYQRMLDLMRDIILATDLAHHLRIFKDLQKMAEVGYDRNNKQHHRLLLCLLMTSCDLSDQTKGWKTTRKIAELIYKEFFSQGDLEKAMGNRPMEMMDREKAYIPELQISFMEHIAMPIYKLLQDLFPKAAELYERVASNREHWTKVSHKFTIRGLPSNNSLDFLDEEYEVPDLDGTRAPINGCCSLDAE

| SMILES | IC50 (A375 cells) | IC50 (V600E mutant B-RAF) | IC50 (pMEK1/2 in A375 cells) | other results |
| --- | --- | --- | --- | --- |
| NC(=O)c1sc2nc(N)nc(-c3ccc(Cl)cc3)c2c1N [2,5-Diamino-4-(4-chloro-phenyl)-thieno[2,3-d]pyrimidine-6-carboxylic acid amide] |  |  |  | inhibition at 10 µM (human PDE2): 8%; IC50 [1]: 0.12 µM; inhibition at 10 µM [2]: -2%; inhibition at 10 µM [3]: 14%; PDE1 (% inhibit at 10 μM) (bovine PDE1): 18%; inhibition at 10 µM [4]: 8% |
| NC(=O)c1sc2ncnc(-c3cc4c(c(OCc5ccccc5)c3)CCO4)c2c1N [Example 5.2.140, 5-amino-4-(4-(benzyloxy)-2,3-dihydrobenzofuran-6-yl)thieno[2,3-d]pyrimidine-6-carboxamide] |  |  |  | melting point: 239 °C |
| NC(=O)c1sc2ncnc(-c3cc(O)c4c(c3)OCC4)c2c1N [Example 5.2.141, 5-amino-4-(4-hydroxy-2,3-dihydrobenzofuran-6-yl)thieno[2,3-d]pyrimidine-6-carboxamide] |  |  |  | melting point: 285 °C |
| NC(=O)c1sc2ncnc(-c3cccc(NC(=O)Nc4ccncc4)c3)c2c1N [Example 5.2.166, 5-amino-4-{3-[(4-pyridylamino)carbonylamino]phenyl}-thiopheno[2,3-d]pyrimidine-6-carboxamide] |  |  |  | melting point: 177 to 179 °C |
| NC(=O)c1sc2ncnc(-c3cccc(NC(=O)Nc4cccnc4)c3)c2c1N [Example 5.2.167, 5-amino-4-{3-[(3-pyridylamino)carbonylamino]phenyl}-thiopheno[2,3-d]pyrimidine-6-carboxamide] |  |  |  | melting point: 199 to 200 °C |
| NC(=O)c1sc2ncnc(-c3cccc(NC(=O)Nc4cccc(C(F)(F)F)c4)c3)c2c1N [Example 5.2.169, 5-amino-4-[3-({[3-(trifluoromethyl)phenyl]amino}-carbonylamino)phenyl]thiopheno[2,3-d]pyrimidine-6-carboxamide] |  |  |  | melting point: 201 to 203 °C |
| NC(=O)c1sc2ncnc(-c3cccc(NC(=O)Nc4ccccc4C(F)(F)F)c3)c2c1N [Example 5.2.170, 5-amino-4-[3-({[2-(trifluoromethyl)phenyl]amino}-carbonylamino)phenyl]thiopheno[2,3-d]pyrimidine-6-carboxamide] |  |  |  | melting point: 172 to 175 °C |
| C[C@@H](CO)Nc1nc(-c2cccc(NC(=O)Nc3ccc(C(F)(F)F)cc3)c2)c2c(N)c(C(N)=O)sc2n1 [Example 261] | 10 to 20 µM | 0.1 to 10 µM | 0.1 to 10 µM |  |
| CC(C)(CO)Nc1nc(-c2cc(O)c(Cl)c(Cl)c2)c2c(N)c(C(N)=O)sc2n1 [Example 264] | 0.1 to 10 µM | 0.1 to 10 µM | 0.1 to 10 µM |  |
| Cc1ccc(-c2nc(NC3CC3)nc3sc(C(N)=O)c(N)c23)cc1 [Example 265] | 20 to 30 µM | 0.1 to 10 µM | 20 to 30 µM |  |
| Cc1nc(-c2ccc(Cl)c(Cl)c2)c2c(N)c(C(N)=O)sc2n1 [Example 270] | 0.1 to 10 µM | 0.1 to 10 µM | 20 to 30 µM |  |
| CC(C)Cc1nc(-c2ccc(Cl)c(Cl)c2)c2c(N)c(C(N)=O)sc2n1 [Example 271] | 10 to 20 µM | 0.1 to 10 µM | 30 to 60 µM |  |
| CC(C)[C@H](CO)Nc1nc(-c2ccc(Cl)c(Cl)c2)c2c(N)c(C(N)=O)sc2n1 [Example 273] | 10 to 20 µM | 0.1 to 10 µM | 0.1 to 10 µM |  |
| Cc1ccc(-c2nc(NC(C)(C)CO)nc3sc(C(N)=O)c(N)c23)cc1O [Example 274] | 0.1 to 10 µM | 0.1 to 10 µM | 0.1 to 10 µM |  |
| COc1cncc(-c2ncnc3sc(C(N)=O)c(N)c23)c1 [Example 275] | 10 to 20 µM | 0.1 to 10 µM | 10 to 20 µM |  |
| COc1cncc(-c2nc(C)nc3sc(C(N)=O)c(N)c23)c1 [Example 276] | 10 to 20 µM | 0.1 to 10 µM | > 60 µM |  |
| NC(=O)c1sc2ncnc(-c3cc(O)cc(Cl)c3)c2c1N [Example 280] | 0.1 to 10 µM | 0.1 to 10 µM | 0.1 to 10 µM |  |
| CC(C)(CN)Nc1nc(-c2cccc(NC(=O)Nc3ccc(C(F)(F)F)cc3)c2)c2c(N)c(C(N)=O)sc2n1 [Example 282] | 10 to 20 µM | 0.1 to 10 µM | 10 to 20 µM |  |
| NC(=O)c1sc2ncnc(-c3cccc(NC(=O)Cc4ccccc4)c3)c2c1N [Example 291] | 10 to 20 µM | 0.1 to 10 µM | 0.1 to 10 µM |  |
| NC(=O)c1sc2ncnc(-c3cccc(NC(=O)Nc4ccncc4)c3)c2c1N [Example 292] | 10 to 20 µM | 0.1 to 10 µM | > 60 µM |  |
| NC(=O)c1sc2ncnc(-c3cccc(NC(=O)Nc4cccc(C(F)(F)F)c4)c3)c2c1N [Example 295] | 0.1 to 10 µM | 0.1 to 10 µM | 0.1 to 10 µM |  |
| NC(=O)c1sc2ncnc(-c3cccc(NC(=O)Nc4ccccc4C(F)(F)F)c3)c2c1N [Example 296] | 10 to 20 µM | 0.1 to 10 µM | 30 to 60 µM |  |
